Results on 25 molecules are retold here after the supplement of paper PMC12613149.

Data set [1] in a line: reversed-phase LC retention time (C18, 15 min MeOH gradient); higher = more hydrophobic / later elution.
A short description of data set [2]: collision cross section (TIMS, N2 drift gas) of the primary ion; higher = larger gas-phase ion size.
Setting [3] is: ionization mode: ESI-, ion species: [M-H]-.
Setting [4] is: ionization mode: ESI+, ion species: [M+H]+.

Consider `C=CCC1(C(C)CCC)C(=O)NC(=O)NC1=O` (stereo not given) [Secobarbital], for which the “reversed-phase LC retention time” value in data set [1] (setting [3]) worked out at 12.7 min. For the same molecule, the collision cross section in data set [2] (setting [3]) is listed as 153.23 Å².
Regarding `CN[C@H]1CC[C@@H](c2ccc(Cl)c(Cl)c2)c2ccccc21` [Sertraline], in data set [1] (setting [4]), the “reversed-phase LC retention time” value was 13.8 min. Further, the collision cross section in data set [2] (setting [4]) came out at 168.55 Å².
Turning to `CCNc1nc(NCC)[nH]c(=O)n1` [Simazine 2-Hydroxy], the “reversed-phase LC retention time” value in data set [1] (setting [4]) was found to be 7.22 min; in data set [1] (setting [3]) it was 8.55 min. In addition, the collision cross section amounted to 140.79 Å² in data set [2] (setting [4]) and 140.22 Å² in data set [2] (setting [3]).
As to `CCNc1nc(Cl)nc(NCC)n1` [Simazine], the “reversed-phase LC retention time” value in data set [1] (setting [4]) is 11.5 min. In data set [2] (setting [4]), this molecule registered a collision cross section of 142.98 Å².
Take `CCNc1nc(NCC)nc(SC)n1` [Simetryn]: the “reversed-phase LC retention time” value in data set [1] (setting [4]) came to 11.6 min. Also, the collision cross section in data set [2] (setting [4]) came to 149.02 Å².
Consider `NC(CC(=O)N1CCn2c(nnc2C(F)(F)F)C1)Cc1cc(F)c(F)cc1F` (stereo not given) [Sitagliptin], for which the “reversed-phase LC retention time” value worked out at 9.57 min in data set [1] (setting [4]) and 12.1 min in data set [1] (setting [3]). For the same molecule, the results for the collision cross section in data set [2] (setting [4]) and in data set [2] (setting [3]) were 192.92 Å² and 182.72 Å², respectively.
The matching figures for `CC(C)NCC(O)c1ccc(NS(C)(=O)=O)cc1` (stereo not given) [Sotalol]: 5.7 min, 7.58 min, 166.72 Å² and 170.22 Å².
Consider `CC[C@H]1CCC[C@H](O[C@H]2CC[C@H](N(C)C)[C@@H](C)O2)[C@@H](C)C(=O)C2=C[C@@H]3[C@@H](C=C[C@@H]4C[C@@H](O[C@@H]5O[C@@H](C)[C@H](OC)[C@@H](OC)[C@H]5OC)C[C@@H]34)[C@@H]2CC(=O)O1` [Spinosyn A], for which the “reversed-phase LC retention time” value in data set [1] (setting [4]) was 15.9 min. The molecule further had a collision cross section in data set [2] (setting [4]) of 267.49 Å².
For `CCC(C)(C)C(=O)OC1=C(c2ccc(Cl)cc2Cl)C(=O)OC12CCCCC2` [Spirodiclofen] the same measures were 11.5 min and 193.38 Å².
As to `CCCN(CC)CC1COC2(CCC(C(C)(C)C)CC2)O1` (stereo not given) [Spiroxamine], the “reversed-phase LC retention time” value in data set [1] (setting [4]) was found to be 14.2 min. In data set [2] (setting [4]), this molecule returned a collision cross section of 177.53 Å².
Turning to `OCC1OC(OC2(CCl)OC(CCl)C(O)C2O)C(O)C(O)C1Cl` (stereo not given) [Sucralose], in data set [1] (setting [3]), the “reversed-phase LC retention time” value is 8.22 min. The collision cross section in data set [2] (setting [3]) is 174.98 Å².
For `CS(=O)(=O)c1ccc(C(=O)C2C(=O)CCCC2=O)c(Cl)c1` [Sulcotrione], the results for the “reversed-phase LC retention time” value in data set [1] (setting [4]) and in data set [1] (setting [3]) were 11.1 min and 6.87 min, respectively. Moreover, the results for the collision cross section in data set [2] (setting [4]) and in data set [2] (setting [3]) were 175.92 Å² and 173.26 Å², respectively.
The matching figures for `COc1cc(NS(=O)(=O)c2ccc(N)cc2)nc(OC)n1` [Sulfadimethoxine]: 9.96 min, 6.81 min, 170.07 Å² and 170.58 Å².
The matching figures for `Cc1cc(C)nc(NS(=O)(=O)c2ccc(N)cc2)n1` [Sulfamethazine]: 7.95 min, 7.46 min, 163.66 Å² and 165.06 Å².
The matching figures for `Nc1ccc(S(=O)(=O)Nc2ccccn2)cc1` [Sulfapyridine]: 6.69 min, 6.7 min, 154.05 Å² and 155.15 Å².
On to `Nc1ccc(S(=O)(=O)Nc2nccs2)cc1` [Sulfathiazole], for which the “reversed-phase LC retention time” value in data set [1] (setting [4]) was 6.39 min; in data set [1] (setting [3]) it was 5.71 min. Besides, the collision cross section in data set [2] (setting [4]) was found to be 153.27 Å²; in data set [2] (setting [3]), 152.72 Å².
Turning to `O=P(OC(CCl)CCl)(OC(CCl)CCl)OC(CCl)CCl` [TDCPP], the “reversed-phase LC retention time” value in data set [1] (setting [4]) was determined as 15.5 min. In addition, the collision cross section in data set [2] (setting [4]) came to 177.62 Å².
The matching figures for `CC(C)CC(C)(O)C#CC(C)(O)CC(C)C` (stereo not given) [TMDD]: 16.4 min and 168.69 Å².
The matching figures for `CC/C(=C(\c1ccccc1)c1ccc(OCCN(C)C)cc1)c1ccccc1` [Tamoxifen]: 15.7 min and 198.29 Å².
For the molecule `O=C1c2c(O)cc(O)cc2O[C@H](c2ccc(O)c(O)c2)[C@H]1O` [Taxifolin], in data set [1] (setting [3]), the “reversed-phase LC retention time” value was 5.86 min. Also, the collision cross section in data set [2] (setting [3]) is recorded as 164.44 Å².
With `CC(C)(C)C(O)(CCc1ccc(Cl)cc1)Cn1cncn1` (stereo not given) [Tebuconazole], the “reversed-phase LC retention time” value in data set [1] (setting [4]) was determined as 15.5 min. The molecule further gave a collision cross section in data set [2] (setting [4]) of 168.02 Å².
`CCCc1nc2c(C)cc(-c3nc4ccccc4n3C)cc2n1Cc1ccc(-c2ccccc2C(=O)O)cc1` [Telmisartan]: the “reversed-phase LC retention time” value in data set [1] (setting [4]) turned out to be 14.2 min; in data set [1] (setting [3]) it was 14.6 min. Also, the collision cross section turned out to be 231.26 Å² in data set [2] (setting [4]) and 237.73 Å² in data set [2] (setting [3]).
In the case of `CN1C(=O)C(O)N=C(c2ccccc2)c2cc(Cl)ccc21` (stereo not given) [Temazepam], in data set [1] (setting [4]), the “reversed-phase LC retention time” value came out at 13.4 min. This molecule had a collision cross section in data set [2] (setting [4]) of 167.53 Å².
For `CCC(=NOC/C=C/Cl)C1=C(O)CC(C2CCOCC2)CC1=O` (stereo not given) [Tepraloxydim (two peaks)], the “reversed-phase LC retention time” value in data set [1] (setting [4]) stood at 14.7 min; in data set [1] (setting [3]), 9.17 min. The collision cross section came to 186.68 Å² in data set [2] (setting [4]) and 181.89 Å² in data set [2] (setting [3]).
`CN(C/C=C/C#CC(C)(C)C)Cc1cccc2ccccc12` [Terbinafine]: the “reversed-phase LC retention time” value in data set [1] (setting [4]) is 13.8 min. This molecule registered a collision cross section in data set [2] (setting [4]) of 187.34 Å².
